Reference: patent US10392398B2, “Inhibitors of Late SV40 Factor (LSF) as cancer chemotherapeutics” (TRUSTEES OF BOSTON UNIVERSITY, priority 2010, dated 2019)
Like-named read-outs stand apart in the source and are kept apart here.

Key:
LSF [1] = target: T1, LSF (Homo sapiens, UniProt Q12800); test: Electrophoretic mobility shift assay (EMSA) of LSF DNA-binding; format: biochemical; details: in vitro translated LSF
T1 sequence (Q12800 1-502): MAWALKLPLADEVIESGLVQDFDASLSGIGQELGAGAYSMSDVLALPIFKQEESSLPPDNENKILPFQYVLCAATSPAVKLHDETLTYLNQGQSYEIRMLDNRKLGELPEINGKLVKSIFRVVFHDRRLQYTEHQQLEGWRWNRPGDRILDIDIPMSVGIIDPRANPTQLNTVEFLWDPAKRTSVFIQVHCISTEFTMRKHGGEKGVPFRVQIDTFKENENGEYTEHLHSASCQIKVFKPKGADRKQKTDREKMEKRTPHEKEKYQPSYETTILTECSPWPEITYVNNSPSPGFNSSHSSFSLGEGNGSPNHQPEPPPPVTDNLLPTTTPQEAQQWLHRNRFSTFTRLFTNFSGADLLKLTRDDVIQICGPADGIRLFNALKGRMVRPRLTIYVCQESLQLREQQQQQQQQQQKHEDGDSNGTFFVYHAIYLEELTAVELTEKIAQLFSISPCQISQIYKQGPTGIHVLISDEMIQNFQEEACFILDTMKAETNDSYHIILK
Experimental: LSF was translated in vitro as previously described^16 for use in EMSAs. Protein was preincubated with inhibitor or DMSO and then incubated with 0.5 μg poly d(I-C) for 15 min at 4° C. in 40 mM KCl, 15 mM HEPES pH 7.9, 1 mM EDTA, 0.5 mM DTT, 5% glycerol. Finally, radiolabelled double-stranded DNA ([…]—SEQ ID NO: 5- and its complement) were added for a 30-min incubation at 30° C. Results were visualized using a PhosphorImager and quantified using ImageQuant software.

HepG3 cells = test: TUNEL apoptosis assay, HepG3; format: cell-based; details: same conditions as QGY-7703
Experimental: HCC cells were plated 24 h prior to incubation with FQI1. At the indicated time points, cells were analyzed using the FragEL™ DNA fragmentation kit (Calbiochem) according to the manufacturer's protocol. Flow cytometry was performed using a FACS caliber (Becton Dickinson) and analyzed with Cell Quest software.

LSF [2] = target: T1, LSF; test: Cellular Thermal Shift Assay (CETSA), LSF; format: binding; design: expressed in transfected cells
Experimental: Drug-target engagement was assessed using CETSA as described by Molina et al. (Monitoring Drug-Target Engagement in Cells and Tissues Using Cellular Thermal Shift Assay. Science (2013) 341, 84-87). QGY-7703 cells were cultured at 37° C. in 5% CO2 in DMEM (Dulbecco's modification of Eagle's Medium; Corning) supplemented with 10% Fetal Bovine Serum (FBS; Invitrogen). Cells were seeded into 10 cm plates and allowed to reach 60-80% confluency. After trypsinization (0.05% Trypsin-EDTA, Invitrogen), cell pellet was washed twice with ice-cold 1×PBS (137 mM NaCl, 2.7 mM KCl, 10 mM Na2HPO4, 2 mM KH2PO4, pH 7.2). Cell pellet was lysed by addition of 200 μL freshly prepared ice-cold RIPA buffer (10 mM Tris-Cl pH 8.0, 1 mM EDTA, 0.5 mM EGTA, 1% Triton X-100, 0.1% sodium deoxycholate, 0.1% SDS, 140 mM NaCl) supplemented with 1 mM Pefabloc (Sigma-Aldrich), and flash frozen in liquid nitrogen and thawed for a total of three cycles. Cell lysate was centrifuged at 20,000×g for 20 minutes to clarify. Supernatant was either treated immediately or saved at −80° C. for future use. […]
Immunoblots were quantified using Image J and graphed using GraphPad PRISM. Area-under-the-curve (AUC) for the quantified western blots were calculated with GraphPad PRISM and non-parametric t-test was calculated to determine statistical significance between the curves. […]

QGY-7703 cells = test: Cell viability GI50 (MTS), QGY-7703; format: cell-based; details: Homo sapiens
Experimental: QGY-7703 and A549 cells were cultured at 37° C. in 5% CO2 in DMEM (Dulbecco's modification of Eagle's Medium; Corning) supplemented with 10% Fetal Bovine Serum (FBS; Invitrogen). NIH-3T3 cells were cultured at 37° C. in 5% CO2 in DMEM supplemented with 10% Fetal Calf Serum (FCS; Atlanta Biologicals). For cell viability assays, 1,500 cells were seeded in 96-well plates and treated with FQI-34 or vehicle (DMSO) at appropriate concentrations (DMSO at 1%) after 20 hours. After 72-hour incubation with compound or vehicle, cell growth was assessed via the Promega CellTiter 96® AQueous One Solution Cell Proliferation Assay, a colorimetric method to determine the number of viable cells. 20 μL of the CellTiter 96® AQueous One Solution Reagent was added directly into cultured wells and incubated for one hour, after which the absorbance at 490 nm was read with a 96-well plate reader (Opys MR Microplate Reader). The CellTiter 96® AQueous One Solution contains an MTS tetrazolium compound which is bioreduced by cells into a colored formazan product that is soluble in tissue culture medium. The quantity of formazan product as measured by absorbance is directly proportional to the number of living cells in culture. GI50 values were determined from plots of the percentage of compound-treated cell growth to vehicle cell growth vs. compound concentration (GraphPad Prism; non-linear regression 4-parameter curve fit with variable slope).

SMILES	modulation of LSF DNA-binding in EMSA (LSF [1])	TUNEL positivity of HepG3 cells (HepG3 cells)	binding to LSF by CETSA (LSF [2]; QGY-7703 lysate, 500 μM)	LSF CETSA (LSF [2]; Table 5, YES/NO)	GI50 (QGY-7703 cells; 72-hour incubation, MTS, read-out: GI50 in QGY-7703 cells) [µM]	GI50 (QGY-7703 cells; Table 5, read-out: QGY-7703 GI50) [µM]	GI50 (QGY-7703 cells; Table 8, read-out: QGY-7703 GI50) [µM]
CCOc1ccccc1C1CC(=O)Nc2cc3c(cc21)OCO3 (racemic) [FQI1, 8-(2-ethoxyphenyl)-7,8-dihydro-[1,3]dioxolo[4,5-g]quinolin-6(5H)-one]	initial enhancement at low concentrations and inhibition at higher concentrations	not TUNEL-positive					
CCOc1cc(N(C)C)ccc1C1CC(=O)Nc2cc3c(cc21)OCO3 (stereo not shown) [FQI-34, 8-(4-(dimethylamino)-2-ethoxyphenyl)-7,8-dihydro-[1,3]dioxolo[4,5-g]quinolin-6(5H)-one]			directly binds	YES	0.26	0.26	0.26
